In test [1] the target is T1, Adapter molecule crk (Homo sapiens, UniProt P46108). Briefly: Binding affinity to recombinant human CRK-2 nSH3 domain (1 to 304 residues) expressed in Escherichia coli assessed as inhibition of Abl T315I mutant-mediated CRK-2 phosphorylation at Y221 residue at 1 uM after 10 to 30 mins by PAGE analysis.
The target in test [2] is T1, Adapter molecule crk. Kind of test: Ratio of Kd for recombinant human CRK-2 nSH3 domain (1 to 304 residues) expressed in Escherichia coli at 35 degC in presence of 1 M NaCl to Kd for recombinant human CRK-2 nSH3 domain (1 to 304 residues) expressed in Escherichia coli at 35 degC in presence of 80 mM NaCl.
Test [3] deals with T1, Adapter molecule crk. Briefly: Binding affinity to recombinant human CRK-2 nSH3 domain (1 to 304 residues) expressed in Escherichia coli by NMR analysis.
The target in test [4] is T1, Adapter molecule crk. Kind of test: Binding affinity to recombinant human CRK-2 nSH3 domain (1 to 304 residues) expressed in Escherichia coli at 25 degC by tryptophan fluorescence quenching assay.
Test [5] has as its target T1, Adapter molecule crk. Kind of test: Binding affinity to recombinant human CRK-2 nSH3 domain (1 to 304 residues) expressed in Escherichia coli assessed as inhibition of interaction with Abl by measuring Abl-mediated CRK-2 phosphorylation at Y221 residue at 1 uM after 10 to 30 mins by PAGE analysis (reference value: 62%). Further details: scale not given: the % may be the effect or the level left.

The target in test [6] is T1, Adapter molecule crk. Briefly: Binding affinity to recombinant human CRK-2 nSH3 domain (1 to 304 residues) expressed in Escherichia coli by tryptophan fluorescence quenching assay.
Test [7] deals with T1, Adapter molecule crk. Briefly: Binding affinity to human c-CRK N-terminal SH3 domain expressed in Escherichia coli BL21 (DE3) by tryptophan fluorescence quenching assay.

From ChEMBL document CHEMBL4257487, “Structure-guided design of a potent peptide inhibitor targeting the interaction between CRK and ABL kinase” (Medchemcomm, 2018) come the findings set out here.

Molecules are shown by their SMILES. The source made the active and inactive calls. The rule behind the calls is not given here. Where a SMILES comes first, the peptide text is derived from it.

The Kd is a measure of binding affinity in units of concentration.

T1 sequence (P46108 whole entry, the tested form may be a part): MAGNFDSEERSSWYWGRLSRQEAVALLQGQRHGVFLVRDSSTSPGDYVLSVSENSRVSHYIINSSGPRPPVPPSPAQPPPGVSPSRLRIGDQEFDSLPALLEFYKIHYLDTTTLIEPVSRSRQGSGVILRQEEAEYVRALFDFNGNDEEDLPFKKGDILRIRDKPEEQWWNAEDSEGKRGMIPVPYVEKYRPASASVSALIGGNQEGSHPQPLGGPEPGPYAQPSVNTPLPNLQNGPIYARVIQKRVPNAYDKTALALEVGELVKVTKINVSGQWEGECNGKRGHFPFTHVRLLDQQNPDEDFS

As for `CC(C)C[C@H](NC(=O)[C@H](C)NC(=O)[C@@H]1CCCN1C(=O)[C@@H]1CCCN1C(=O)[C@@H](N)CO)C(=O)N1CCC[C@H]1C(=O)N[C@@H](CCCCN)C(=O)N[C@@H](CCCCN)C(=O)N[C@@H](CCCNC(=N)N)C(=O)N[C@@H](CCC(N)=O)C(=O)N[C@@H](CO)C(=O)N[C@@H](Cc1ccc(O)cc1)C(=O)N[C@@H](CCCNC(=N)N)C(=O)N[C@@H](CCCNC(=N)N)C(=O)O` (H-SPPALPKKRQSYRR-OH), the inhibition entry in test [1] is “Active”. In test [2], the Ratio came out at 50. The result in test [3] was Active. In addition, the Kd in test [4] and in test [6] was 0.009 µM each time. Also, the Activity in test [5] was determined as 21%.
For `Cc1ccc(NC(=O)c2ccc(CN3CCN(C)CC3)cc2)cc1Nc1nccc(-c2cccnc2)n1`, the inhibition entry in test [1] was “inactive”. The Activity in test [5] came to 33%.
Regarding `CC(C)C[C@H](NC(=O)[C@H](C)NC(=O)[C@@H]1CCCN1C(=O)[C@@H]1CCCN1C(=O)[C@@H]1CCCN1C(=O)[C@H](CO)NC(=O)[C@H](CC(N)=O)NC(=O)[C@@H](N)CC(=O)O)C(=O)N1CCC[C@H]1C(=O)N[C@@H](CCCCN)C(=O)N[C@@H](CCCCN)C(=O)N[C@@H](CCCNC(=N)N)C(=O)N[C@@H](CCC(N)=O)C(=O)N[C@@H](CO)C(=O)N[C@@H](Cc1ccc(O)cc1)C(=O)O` (H-DNSPPPALPKKRQSY-OH), the outcome in test [3] was Active. Further, the dissociation constant (Kd) in test [6] came out at 0.4 µM.
On to `CC(C)C[C@H](NC(=O)[C@H](C)NC(=O)[C@@H]1CCCN1C(=O)[C@@H]1CCCN1C(=O)[C@@H]1CCCN1)C(=O)N1CCC[C@H]1C(=O)N1CCC[C@H]1C(=O)N[C@@H](CCCCN)C(=O)N[C@@H](CCCCN)C(=O)N[C@@H](CCCNC(=N)N)C(=O)O`, for which the outcome in test [3] was Active. This compound also returned a Kd in test [7] of 1.9 µM.
